Structures can show the parent of a compound that is named as a salt.
Legend:
[1] = biological target: SARS-CoV-2 3CLpro (Severe acute respiratory syndrome coronavirus 2, UniProt P0DTD1); assay: biochemical; conditions: inhibition of SARS-CoV-2 3CLpro; 15 nM 3CLpro, 25 μM fluorogenic substrate, 37° C.; read-out: Inhibitory Activity (IC50)
[2] = system: SARS-CoV-2; assay: Anti-SARS-CoV-2 activity in A549 cells expressing the human ACE2 receptor (inhibition of SARS-CoV-2 replication); type: cell-based; conditions: for EC50: Severe acute respiratory syndrome coronavirus 2, A549-ACE2, 24 h, read-out: Antiviral Activity (EC50); for antiviral potency in A549 cells in comparison with compound Ref-2: versus Ref-2 (FIG. 7)

SMILES | IC50 [1] | EC50 [2] | antiviral potency in A549 cells in comparison with compound Ref-2 [2]
CNC(=O)c1cc(Br)cc([N+](=O)[O-])c1N[C@H]1CN(C(=O)c2cncc3ccccc23)CC12CC2 [Compound 74, (R)-5-bromo-2-((5-(isoquinoline-4-carbonyl)-5-azaspiro[2,4]heptan-7-yl)amino)-N-methyl-3-nitrobenzamide] | 100 to 1000 nM | < 100 nM | –
CN1CC[C@@H](NC(=O)c2cc(Br)cc([N+](=O)[O-])c2N[C@H]2CN(C(=O)c3cncc4ccccc34)CCC2(F)F)C1 [Compound 45, 5-bromo-2-(((S)-4,4-difluoro-1-(isoquinoline-4-carbonyl)piperidin-3-yl)amino)-N-((R)-1-methylpyrrolidin-3-yl)-3-nitrobenzamide hydrochloride] | < 100 nM | < 100 nM | –
O=C(NCC(F)(F)F)c1cc(Cl)cc([N+](=O)[O-])c1N[C@H]1CN(C(=O)c2cncc3ccccc23)CCC1(F)F [Compound 91, (S)-5-chloro-2-((4,4-difluoro-1-(isoquinoline-4-carbonyl)piperidin-3-yl)amino)-3-nitro-N-(2,2,2-trifluoroethyl) benzamide] | < 100 nM | < 100 nM | –
CNC1CN(C(=O)c2cc(Br)cc([N+](=O)[O-])c2N[C@H]2CN(C(=O)c3cncc4ccccc34)CCC2(F)F)C1 [Compound 95, (S)-(5-bromo-2-((4,4-difluoro-1-(isoquinoline-4-carbonyl)piperidin-3-yl)amino)-3-nitrophenyl)(3-(methylamino)azetidin-1-yl)methanone hydrochloride] | < 100 nM | < 100 nM | –
CNC(=O)c1cc(Br)cc([N+](=O)[O-])c1NC(C(C)C)C1CN(C(=O)c2cncc3ccccc23)C1 (stereo not drawn) [Compound 99, 5-bromo-2-((1-(1-(isoquinoline-4-carbonyl)azetidin-3-yl)-2-methylpropyl)amino)-N-methyl-3-nitrobenzamide] | 100 to 1000 nM | 100 to 1000 nM | –
O=C(N[C@@H]1CCOC1)c1cc(Cl)cc([N+](=O)[O-])c1N[C@H]1CN(C(=O)c2cncc3ccccc23)CCC1(F)F [Compound 142, 5-chloro-2-(((S)-4,4-difluoro-1-(isoquinoline-4-carbonyl)piperidin-3-yl)amino)-3-nitro-N-((R)-tetrahydrofuran-3-yl)benzamide] | < 100 nM | < 100 nM | –
CN(C)C(=O)c1cc(Br)cc([N+](=O)[O-])c1N[C@H]1CN(C(=O)c2cncc3ccccc23)CCC1(F)F [Compound 151, (S)-5-bromo-2-((4,4-difluoro-1-(isoquinoline-4-carbonyl)piperidin-3-yl)amino)-N, N-dimethyl-3-nitrobenzamide] | < 100 nM | < 100 nM | better antiviral potency
CNC(=O)c1cc(Cl)cc([N+](=O)[O-])c1N[C@H]1CN(C(=O)c2cncc3ccccc23)CC[C@@H]1F [Compound 96, 5-chloro-2-(((3S, 4S)-4-fluoro-1-(isoquinoline-4-carbonyl)piperidin-3-yl)amino)-N-methyl-3-nitrobenzamide] | < 100 nM | < 100 nM | –
CN(C)C1CN(C(=O)c2cc(Cl)cc([N+](=O)[O-])c2N[C@H]2CN(C(=O)c3cncc4ccccc34)CCC2(F)F)C1 [Compound 94, (S)-(5-chloro-2-((4,4-difluoro-1-(isoquinoline-4-carbonyl)piperidin-3-yl)amino)-3-nitrophenyl)(3-(dimethylamino)azetidin-1-yl)methanone hydrochloride] | < 100 nM | < 100 nM | –
CN1CC[C@@H](NC(=O)c2cc(Cl)cc([N+](=O)[O-])c2N[C@H]2CN(C(=O)c3cncc4ccccc34)CCC2(F)F)C1 [Compound 93, 5-chloro-2-(((S)-4,4-difluoro-1-(isoquinoline-4-carbonyl)piperidin-3-yl)amino)-N-(1-methylpyrrolidin-3-yl)-3-nitrobenzamide hydrochloride] | < 100 nM | < 100 nM | –
O=C(c1cc(Br)cc([N+](=O)[O-])c1N[C@H]1CN(C(=O)c2cncc3ccccc23)CCC1(F)F)N1CC(O)C1 [Compound 139, (S)-(5-bromo-2-((4,4-difluoro-1-(isoquinoline-4-carbonyl)piperidin-3-yl)amino)-3-nitrophenyl)(3-hydroxyazetidin-1-yl)methanone] | < 100 nM | < 100 nM | –
C=CCNC(=O)c1cc(Cl)cc([N+](=O)[O-])c1N[C@H]1CN(C(=O)c2cncc3ccccc23)CCC1(F)F [Compound 42, (S)-N-allyl-5-chloro-2-((4,4-difluoro-1-(isoquinoline-4-carbonyl)piperidin-3-yl)amino)-3-nitrobenzamide] | < 100 nM | < 100 nM | –
CNC(=O)c1cc(Br)cc([N+](=O)[O-])c1N[C@@H]1CCCC[C@@H]1NC(=O)c1cncc2ccc(F)cc12 [Compound 9, N-((1S, 2R)-2-((4-bromo-2-(methylcarbamoyl)-6-nitrophenyl)amino)cyclohexyl)-6-fluoroisoquinoline-4-carboxamide] | < 100 nM | 100 to 1000 nM | –
CNC(=O)c1cc(Br)cc([N+](=O)[O-])c1N[C@@H]1CN(C)CC[C@@H]1NC(=O)c1cncc2ccccc12 [Compound 89, N-((3R,4S)-3-((4-bromo-2-(methylcarbamoyl)-6-nitrophenyl)amino)-1-methylpiperidin-4-yl)isoquinoline-4-carboxamide] | 1000 to 10000 nM | 1000 to 10000 nM | –
Cn1cc(NC(=O)c2cc(Br)cc([N+](=O)[O-])c2N[C@H]2CN(C(=O)c3cncc4ccccc34)CCC2(F)F)cn1 [Compound 155, (S)-5-bromo-2-((4,4-difluoro-1-(isoquinoline-4-carbonyl)piperidin-3-yl)amino)-N-(1-methyl-1H-pyrazol-4-yl)-3-nitrobenzamide] | < 100 nM | < 100 nM | –
CC(C)(C)NC(=O)c1cc(Br)cc([N+](=O)[O-])c1N[C@@H]1CCCC[C@@H]1NC(=O)c1cncc2ccccc12 [Compound 85, N-((1S, 2R)-2-((4-bromo-2-(tert-butylcarbamoyl)-6-nitrophenyl)amino)cyclohexyl)isoquinoline-4-carboxamide] | 100 to 1000 nM | 100 to 1000 nM | –
CC(C)C(Nc1c(C(=O)N[C@H](C)C(F)(F)F)cc(Br)cc1[N+](=O)[O-])C1CN(C(=O)c2cncc3ccccc23)C1 (stereo partly drawn) [Compound 124, 5-bromo-2-((1-(1-(isoquinoline-4-carbonyl)azetidin-3-yl)-2-methylpropyl)amino)-3-nitro-N-((R)-1,1,1-trifluoropropan-2-yl)benzamide] | < 100 nM | < 100 nM | –
CNC(=O)c1cc(Br)cc(C(F)(F)F)c1N[C@H]1CN(C(=O)c2cncc3ccccc23)CCC1(F)F [Compound 35, (S)-5-bromo-2-((4,4-difluoro-1-(isoquinoline-4-carbonyl)piperidin-3-yl)amino)-N-methyl-3-(trifluoromethyl)benzamide] | < 100 nM | < 100 nM | –
O=C(NC1CC(F)(F)C1)c1cc(Br)cc([N+](=O)[O-])c1N[C@@H]1COCC[C@@H]1NC(=O)c1cncc2ccccc12 [Compound 126, N-((3S, 4S)-3-((4-bromo-2-((3,3-difluorocyclobutyl)carbamoyl)-6-nitrophenyl)amino)tetrahydro-2H-pyran-4-yl)isoquinoline-4-carboxamide] | < 100 nM | < 100 nM | –
COC1CN(C(=O)c2cc(Cl)cc([N+](=O)[O-])c2N[C@H]2CN(C(=O)c3cncc4ccccc34)CCC2(F)F)C1 [Compound 44, (S)-(5-chloro-2-((4,4-difluoro-1-(isoquinoline-4-carbonyl)piperidin-3-yl)amino)-3-nitrophenyl)(3-methoxyazetidin-1-yl)methanone] | < 100 nM | < 100 nM | –
CNC(=O)c1cc(Br)cc([N+](=O)[O-])c1N[C@H]1CN(C(=O)c2cncc3ccccc23)CC[C@H]1F [Compound 88, 5-bromo-2-(((3S, 4R)-4-fluoro-1-(isoquinoline-4-carbonyl)piperidin-3-yl)amino)-N-methyl-3-nitrobenzamide] | < 100 nM | < 100 nM | –
CNC(=O)c1cc(Br)cc([N+](=O)[O-])c1NC1CN(C(=O)c2cncc3ccccc23)CC1(F)F (stereo not drawn) [Compound 18, 5-bromo-2-((4,4-difluoro-1-(isoquinoline-4-carbonyl)pyrrolidin-3-yl)amino)-N-methyl-3-nitrobenzamide] | 100 to 1000 nM | 100 to 1000 nM | –
O=C(NC1(C(F)(F)F)CC1)c1cc(Br)cc([N+](=O)[O-])c1N[C@@H]1CCCC[C@@H]1NC(=O)c1cncc2ccccc12 [Compound 16, N-((1S, 2R)-2-((4-bromo-2-nitro-6-((1-(trifluoromethyl)cyclopropyl)carbamoyl)phenyl)amino)cyclohexyl)isoquinoline-4-carboxamide] | 100 to 1000 nM | 1000 to 10000 nM | –
Cn1cc(NC(=O)c2cc(Cl)cc([N+](=O)[O-])c2N[C@H]2CN(C(=O)c3cncc4ccccc34)CCC2(F)F)cn1 [Compound 41, (S)-5-chloro-2-((4,4-difluoro-1-(isoquinoline-4-carbonyl)piperidin-3-yl)amino)-N-(1-methyl-1H-pyrazol-4-yl)-3-nitrobenzamide] | < 100 nM | < 100 nM | better antiviral potency
O=C(c1cc(Cl)cc([N+](=O)[O-])c1N[C@H]1CN(C(=O)c2cncc3ccccc23)CCC1(F)F)N1CC(F)(F)C1 [Compound 143, (S)-(5-chloro-2-((4,4-difluoro-1-(isoquinoline-4-carbonyl)piperidin-3-yl)amino)-3-nitrophenyl)(3,3-difluoroazetidin-1-yl)methanone] | < 100 nM | < 100 nM | –
O=C(NC1CC1)c1cc(Cl)cc(C(F)(F)F)c1N[C@H]1CN(C(=O)c2cncc3ccccc23)CCC1(F)F [Compound 83, (S)-5-chloro-N-cyclopropyl-2-((4,4-difluoro-1-(isoquinoline-4-carbonyl)piperidin-3-yl)amino)-3-(trifluoromethyl)benzamide] | < 100 nM | < 100 nM | –
